Patent publication US9872919B2, “Prodrugs for selective anticancer therapy” (THE RESEARCH FOUNDATION FOR THE STATE UNIVERSITY OF NEW YORK, priority 2012, dated 2018)
Where a SMILES comes first, the peptide text is derived from it. The star is where a group is joined. Cbz = O=C(OCc1ccccc1)*

Legend:
[1] = system: HCT116, HT29, CCD841-CoN and Caco-2 cells; assay: Immunological detection of Puro-labeled proteins in cells; format: cell-based, human; settings: immunoblot; Boc-KAc-Puro 16.9 μM 20 h; Puro 2.1 μM 16 h
Protocol: (§1) FIG. 27. Levels of Puro-incorporated proteins in the cells were monitored by immunoblotting. Indicated cell lines were treated either with vehicle control DMSO or Boc-KAc-Puro (16.9 μM) in the presence or absence of TSA (0.5 μM) for 20 h, followed by preparation of cell lysates. The lower panel (anti-α-Tubulin) serves as a loading control.
as §1, with “28.” for “27.”, “Puro (2.1” for “Boc-KAc-Puro (16.9”, “16” for “20”, “lysates. […]” for “lysates.”
Cultured cells or tissue samples were sonicated in RIPA lysis buffer (1% NP-40, 0.1% SDS, 50 mM Tris-HCl pH 7.4, 150 mM NaCl, 0.5% sodium deoxycholate, 1 mM EDTA) supplemented with PMSF and protease inhibitor cocktail (Roche) on ice followed by clarification. Protein lysates were separated on sodium dodecyl sulfate-polyacrylamide gels and transferred onto nitrocellulose membranes (Whatman). The primary antibodies used were anti-puromycin (3RH11, KeraFAST) and anti-α-tubulin (Sigma-Aldrich). Proteins of interest were detected with anti-mouse secondary antibody by chemiluminescence (ECL Kit, GE Healthcare Life Sciences).

[2] = system: HCT116, HT29, CCD841-CoN and Caco-2 cells; assay: Cell killing by parental Puro (MTS); format: cell-based, human
Protocol: FIG. 14. Inhibition of cell viability by parental Puro. The cell lines were treated with the indicated doses of Puro (0, 1.1, 2.1, 4.2, or 8.4 μM) for 3 d followed by MTS assay. Data represent mean values of triplicate mesurements±s.d.
Cell number was determined by cell counting using improved Neubauer hemacytometer. Cell viability was calculated as the number of viable cells divided by the total number of cells using Trypan Blue Stain (Invitrogen) to distinguish non-viable cells. Data were obtained from duplicated samples with quadruplicate measurements. MTS based cell viability assay was performed using CellTiter 96 Aqueous Cell Proliferation Assay (Promega) according to the manufacturer's instruction. Either 1 μl of DMSO alone or variable concentrations of BKAc-Puro or Puro in DMSO were added to the cell lines seeded at 5×10^4 cells per well in 96-well tissue culture plates in 100 μl of the growth medium, followed by 3-5 d incubation at 37° C. with 5% CO2 atmosphere. […] After additional 2-3 h incubation, the absorbance of the formazan at 490 nm was measured by the microplate reader. […] Determination of non-viable cells using PI staining was performed by adding 1 μg/ml of PI solution (Sigma) to the cell culture, prior to the examination under fluorescence microscopy (Axiovert 3, Carl Zeiss) through a×32 objective equipped with a digital imaging processor (Infinity 3, Lumenera).

[3] = system: HDAC and cathepsin L in BxPC3 and CFPac-1 cells; assay: Live cell enzymatic assay with Boc-Lys(Ac)-AMC in pancreatic cancer cells; format: cell-based, human; settings: for activation of substrate Boc-Lys(Ac)-AMC (AMC release): 6 hr, Z-FY-CHO 10 μM
Protocol: FIG. 5. A. HDAC assay using different substrates in BxPC3 cells (shGFP and shSki). Cells were incubated with Boc-Lys(Ac)-AMC or Ac-Arg-Gly-Lys(Ac)-AMC (25 μM) for 1 hr with DMSO (vehicle) or TSA (1 μM) as indicated, followed by cell lysis and trypsin treatment, and fluorescence measurements. Data represent mean values of triplicate measurements±standard deviation. RFU, relative fluorescent units. B. Similar experiment was done as in A but without cell lysis and trypsin treatment. Cells were incubated with the substrates for 2.5 hr.
FIG. 6. A. Release of AMC by combined HDAC and endogenous protease-dependent enzymatic reaction in BxPC3 and CFPac-1 cells (shGFP and shSki). Cells were incubated with substrate Boc-Lys(Ac)-AMC (25 μM) for 6 hr with DMSO (vehicle), TSA (1 μM), or Z-FY-CHO (10 μM) as indicated, followed by fluorescence measurements. Data represent mean values of triplicate measurements±standard deviation. RFU, relative fluorescent units. B. Time course of AMC release in BxPC3 cells (shGFP and shSki). Each cells were incubated with Boc-Lys(Ac)-AMC (25 μM) for 2.5, 6.0, and 23 hr with DMSO (vehicle) or TSA (1 μM) as indicated.
(§2) Tissue culture based standard HDAC assays were performed by commercially available fluorimetric HDAC assay kit (SensoLyte, AnaSpec) according to the manufacturer's instruction with modification of using 25 μM Boc-Lys(Ac)-AMC (Bachem) as substrate and measuring parameter (Ex/Em=355 nm/460 nm) for AMC. Basically, HDAC substrate 25 μM Boc-Lys(Ac)-AMC [either with DMSO or 1 μM TSA (Sigma)] was applied to the overnight culture seeded from 6×10^4 cells in 100 μl medium in 96-well tissue culture plates, followed by 2 to 3 h incubation at 37° C. with 5% CO2 atmosphere. Then the deacetylation reaction was terminated by addition of HDAC developer solution containing cell lysis buffer and trypsin reagents. After 15 m incubation at room temperature, the fluorescent signal of AMC was measured by SpectraMax M5 microplate reader (Molecular Devices) at Ex/Em=355 nm/460 nm. Live cell lysyl endopeptidase assay was performed by applying the substrate 25 μM Boc-Lys-AMC (Bachem) [either with DMSO or 100 μM Z-FY-CHO (EMD)] to the overnight culture seeded from 6×10^4 cells in 100 μl medium in 96-well tissue culture plates, followed by 20 h incubation at 37° C. with 5% CO2 atmosphere, then the fluorescent signal of AMC was measured. Live cell enzymatic assay using Boc-Lys(Ac)-AMC was performed by applying the substrate 25 μM Boc-Lys(Ac)-AMC (either with DMSO, 1 μM TSA or 100 μM Z-FY-CHO) to the overnight culture seeded from 6×10^4 cells in 100 μl medium in 96-well tissue culture plates, followed by 20 h incubation at 37° C. with 5% CO2 atmosphere, then the fluorescent signal of AMC was measured. Experiments were repeated at least three times.

[4] = system: BXPC-3 cells; assay: MTS cell viability assay with or without TSA; format: cell-based, human; settings: 20 μM, 72 hr, with TSA (50 μM as printed)
Protocol: FIG. 25. Selective cytotoxicity by BKAc-5FCR. Human pancreatic BXPC3 cells were treated with DMSO (vehicle), BKAc-5FCR (20 μM), or 5FCR (20 μM) for 72 hr with or without TSA (50 μM) followed by MTS cell viability assay. Representative phase contrast images of cells treated with DMSO (vehicle) or BKAc-5FCR (20 μM) for 72 hr with or without TSA (50 μM) are shown.

[5] = system: BxPC3 shGFP control cells; assay: MTT cell viability assay, BxPC3 shGFP; format: cell-based; settings: Homo sapiens, BXPC-3, 72 hr
Protocol: (§3) FIG. 24. Effect of the prodrug on cell viability of BxPC3 cells (shGFP and shSki). Cells were treated with the indicated dose of drugs (BKAc-5FCR or 5FCR) for 72 hr followed by MTT assay. Data represent mean values of triplicate measurements±standard deviation. IC50 values were derived from nonlinear curve fit of the dose response data using an outlier's exclusion, variable slope model (GraphPad Prism software). All values are means of at least two independent experiments.
(§4) The in vitro efficacy of the compounds in a series of BxPC3 and CFPac-1 derivatives with reduced Class I HDAC activity following Ski knockdown (shSki), HDAC3 knockdown and control (shGFP) was assessed. The growth inhibitory/viability effects of the compounds (IC50 value, the concentration resulting in 50% growth inhibition) on the various cell lines were determined by dose response curve analysis (GraphPad Prism software) of MTT [3-(4,5dimethylthiazol-2-yl)-2,5-diphenyl-tetrazolium bromide] cell viability assay. If the prodrugs are activated in an HDAC-dependent manner, the cells with reduced HDAC activity would be predicted to be more resistant to the prodrug treatment than control cells, while the effect of free parental drugs on both cells would be expected to be similar.

[6] = system: BxPC3 shSki cells; assay: MTT cell viability assay, BxPC3 shSki; format: cell-based, human; settings: for difference in IC50 values shSki versus shGFP: BxPC3 shSki over shGFP; for IC50: Homo sapiens, BXPC-3, MTT, 72 hr, Ski knockdown
Protocol: as §3, §4

[7] = system: cathepsin L (CTSL); assay: Live cell lysyl endopeptidase assay with Boc-Lys-AMC; format: cell-based; settings: Z-FY-CHO 100 μM, live cells, all cases tested
Protocol: FIG. 2. Comparative live cell lysyl endopeptidase activity of the same cell lines as in FIG. 1 using substrate Boc-Lys-AMC either with vehicle control DMSO or Z-FY-CHO (100 μM). Data represent mean values of triplicate measurements±s.d. RFU, relative fluorescent units.
as §2, with “Then the deacetylation reaction was terminated by addition of HDAC developer solution containing cell lysis buffer and trypsin reagents.” left out, “Live cell enzymatic assay using Boc-Lys(Ac)-AMC was performed by applying the substrate 25 μM Boc-Lys(Ac)-AMC (either with DMSO, 1 μM TSA or 100 μM Z-FY-CHO) to the overnight culture seeded from 6×10^4 cells in 100 μl medium in 96-well tissue culture plates, followed by 20 h incubation at 37° C. with 5% CO2 atmosphere, then the fluorescent signal of AMC was measured. Experiments were repeated at least three times.” left out

IC50 [5] [nM] | difference in IC50 values shSki versus shGFP [6] | IC50 [6] [nM] | SMILES | activation of substrate Boc-Lys(Ac)-AMC (AMC release) ([3]; TSA 1 μM) | further results
 |  |  | COc1ccc(C[C@H](N)C(=O)N[C@H]2[C@@H](O)[C@H](n3cnc4c(N(C)C)ncnc43)O[C@@H]2CO)cc1 [Puro, puromycin, reference compound] |  | intensity of Puro incorporation, malignant vs normal and non-malignant cells [1]: no difference; cell killing [2]: kill all of these cells examined
 |  |  | CC(=O)NCCCC[C@H](NC(=O)OC(C)(C)C)C(=O)Nc1ccc2c(C)cc(=O)oc2c1 [Boc-Lys(Ac)-AMC] |  | activation of substrate in live cells relative to total HDAC activity ([3]; BxPC3, 25 μM, 2.5 hr, without cell lysis and trypsin): approximately 50%
 |  |  | CC(/C=C/C(=O)NO)=C\[C@@H](C)C(=O)c1ccc(N(C)C)cc1 [TSA, Trichostatin A] | completely inhibited activation | AMC release, time course ([3]; BxPC3, 20 hr time course, TSA 1 μM): AMC release was inhibited
2600 | two-fold | 5200 | CC(=O)NCCCCC(NC(=O)OC(C)(C)C)C(=O)Nc1nc(=O)n([C@@H]2O[C@H](CO)[C@@H](O)[C@H]2O)cc1F (stereo partly drawn) [BKAc-5FCR, t-butyl (6-acetamido-1-((1-((2R,3R,4S,5R)-3,4-dihydroxy-5-(hydroxymethyl)tetrahydrofuran-2-yl)-5-fluoro-2-oxo-1,2-dihydropyrimidin-4-yl)amino)-1-oxohexan-2-yl)carbamate] |  | cytotoxic effect in the presence of HDAC inhibitor TSA [4]: substantially compromised
1300 | no significant changes | 1200 | Nc1nc(=O)n([C@@H]2O[C@H](CO)[C@@H](O)[C@H]2O)cc1F [5FCR, 5-fluorocytidine, reference compound] |  | 
 |  |  | O=C[C@H](Cc1ccc(O)cc1)NC(=O)[C@H](Cc1ccccc1)NC(=O)OCc1ccccc1 [Z-FY-CHO] (Cbz-Phe-Tyr-aldehyde) | completely abrogated the activation of the substrate | release of AMC from Boc-Lys-AMC [7]: significantly blocked
